This is an account of results in ChEMBL document CHEMBL1144125, “Excavatolides U-Z, new briarane diterpenes from the gorgonian briareum excavatum” (1999).

What all share (assay type): functional
Holding throughout (details): read-out: ED50 (the source's name)

Experiment [1] concerns KB. Nature of the experiment: Cytotoxicity against human KB cells.
Experiment [2] concerns HT-29. The experiment can be described thus: Cytotoxicity against human HT-29 cells.
Experiment [3] has as its system P388. Nature of the experiment: Cytotoxicity against mouse P388 cells.
In experiment [4] the test system is A549. The experiment can be described thus: Cytotoxicity against human A549 cells.

Converted amounts (≈) assume the structure as drawn.

On to `CCC(=O)O[C@H]1C[C@H](OC(C)=O)[C@@]2(C)[C@H]([C@H]1C)[C@@H](O)[C@]13O[C@]1(C)C(=O)O[C@H]3/C=C(/C)CC[C@H]2OC(C)=O` [EXCAVATOLIDE W], for which the EC50 in experiment [1] is above 50 µg/mL; in experiment [2], above 50 µg/mL; in experiment [3], 19.4 µg/mL (≈ 37.1 µM); in experiment [4], above 50 µg/mL.
`CCCC(=O)O[C@H]1C/C(C)=C\[C@@H]2OC(=O)[C@@]3(C)O[C@]23[C@H](OC(C)=O)[C@H]2[C@@H](C)[C@@H](OC(=O)CC)C[C@H](OC(C)=O)[C@]2(C)[C@@H]1OC(C)=O` [EXCAVATOLIDE U]: the EC50 in experiment [1], in experiment [2], in experiment [3] and in experiment [4] was above 50 µg/mL each time.
As for `CCC(=O)O[C@@H]1C[C@@H](OC(C)=O)[C@@]2(C)C=C[C@@H](OC(C)=O)[C@](C)(O)[C@@H]2[C@@H](OC(C)=O)[C@]23O[C@]2(C)C(=O)O[C@H]3/C=C\1C`, the EC50 in experiment [1] was above 50 µg/mL; in experiment [2], 15.1 µg/mL (≈ 26.1 µM); in experiment [3] it was 9.5 µg/mL (≈ 16.4 µM); in experiment [4] it was above 50 µg/mL.
As for `CCCC(=O)O[C@@H]1C=C[C@]2(C)[C@H](OC(C)=O)C[C@@H](OC(C)=O)/C(C)=C\[C@@H]3OC(=O)[C@@]4(C)O[C@]34[C@H](OC(C)=O)[C@H]2[C@@]1(C)O`, the EC50 in experiment [1], in experiment [2], in experiment [3] and in experiment [4] was above 50 µg/mL each time.
Take `CCC(=O)O[C@H]1C[C@H](OC(C)=O)[C@@]2(C)[C@H]([C@H]1C)[C@@H](OC(C)=O)[C@]13O[C@]1(C)C(=O)O[C@H]3/C=C(/C)C[C@H](OC(C)=O)[C@H]2OC(C)=O` [EXCAVATOLIDE V]: the EC50 is 7 µg/mL (≈ 11.2 µM) in experiment [1], 20.4 µg/mL (≈ 32.8 µM) in experiment [2], 3.9 µg/mL (≈ 6.26 µM) in experiment [3] and 19.1 µg/mL (≈ 30.7 µM) in experiment [4].
